“And” between values parts separate entries of the source, which are not always exact repeats. Equal entries are not always repeated.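 Five compound concentrations were applied to cells in 96-well plates for 48 hours; endpoints were derived by simple linear interpolation of the resulting dose-response curve. At the GI50, growth is halved. TGI is the concentration that stops growth completely.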
Each molecule was assayed on HT29 colon (assay: DTP human tumour cell line panel, 48 h).

Structure (SMILES) | TGI [µM]
Clc1cccc(Cl)c1C1SCc2nc3ccccc3n21 (stereo not given) | > 100
COc1cc2c(cc1OC)C1[C@@H](c3ccccc3)OCN1CC2 (stereo not given in full) | > 100

Each molecule was assayed on OVCAR-5 ovarian (assay: DTP human tumour cell line panel, 48 h).

Structure (SMILES) | TGI [µM]
COC1OC(COC(C)=O)C(OC(C)=O)C(OC(C)=O)C1NC(=O)N(CCCl)N=O (stereo not given) | > 100
CNc1ccccc1-c1nc2ccccc2c(=O)o1 | > 100
COc1cc(OC)c2c(c1)C(=O)C(CC1(C)OCCCO1)=CC2=O | 30.6
Clc1cccc(Cl)c1C1SCc2nc3ccccc3n21 (stereo not given) | > 100
COc1cc2c(cc1OC)C1[C@@H](c3ccccc3)OCN1CC2 (stereo not given in full) | > 100

Each molecule was assayed on HCC-2998 colon (assay: DTP human tumour cell line panel, 48 h).

Structure (SMILES) | TGI [µM]
COC1OC(COC(C)=O)C(OC(C)=O)C(OC(C)=O)C1NC(=O)N(CCCl)N=O (stereo not given) | > 100
CNc1ccccc1-c1nc2ccccc2c(=O)o1 | > 100
COc1cc(OC)c2c(c1)C(=O)C(CC1(C)OCCCO1)=CC2=O | 32.2
Clc1cccc(Cl)c1C1SCc2nc3ccccc3n21 (stereo not given) | > 100
COc1cc2c(cc1OC)C1[C@@H](c3ccccc3)OCN1CC2 (stereo not given in full) | > 100

What follows are molecules tested on MALME-3M melanoma (assay: DTP human tumour cell line panel, 48 h).

Structure (SMILES) | TGI [µM]
COC1OC(COC(C)=O)C(OC(C)=O)C(OC(C)=O)C1NC(=O)N(CCCl)N=O (stereo not given) | > 100
CNc1ccccc1-c1nc2ccccc2c(=O)o1 | > 100
COc1cc(OC)c2c(c1)C(=O)C(CC1(C)OCCCO1)=CC2=O | 20.5
Clc1cccc(Cl)c1C1SCc2nc3ccccc3n21 (stereo not given) | > 100
COc1cc2c(cc1OC)C1[C@@H](c3ccccc3)OCN1CC2 (stereo not given in full) | > 100

Each molecule was assayed on M19-MEL melanoma (assay: DTP human tumour cell line panel, 48 h).

Structure (SMILES) | TGI [µM]
COC1OC(COC(C)=O)C(OC(C)=O)C(OC(C)=O)C1NC(=O)N(CCCl)N=O (stereo not given) | > 100
CNc1ccccc1-c1nc2ccccc2c(=O)o1 | > 100
COc1cc(OC)c2c(c1)C(=O)C(CC1(C)OCCCO1)=CC2=O | 13.9
Clc1cccc(Cl)c1C1SCc2nc3ccccc3n21 (stereo not given) | > 100
COc1cc2c(cc1OC)C1[C@@H](c3ccccc3)OCN1CC2 (stereo not given in full) | > 100

What follows are molecules tested on ACHN renal (assay: DTP human tumour cell line panel, 48 h).

Structure (SMILES) | TGI [µM]
COC1OC(COC(C)=O)C(OC(C)=O)C(OC(C)=O)C1NC(=O)N(CCCl)N=O (stereo not given) | > 100
CNc1ccccc1-c1nc2ccccc2c(=O)o1 | > 100
COc1cc(OC)c2c(c1)C(=O)C(CC1(C)OCCCO1)=CC2=O | 21.6
Clc1cccc(Cl)c1C1SCc2nc3ccccc3n21 (stereo not given) | > 100
COc1cc2c(cc1OC)C1[C@@H](c3ccccc3)OCN1CC2 (stereo not given in full) | > 100

Each molecule was assayed on NCI-H522 lung (assay: DTP human tumour cell line panel, 48 h).

Structure (SMILES) | TGI [µM]
COC1OC(COC(C)=O)C(OC(C)=O)C(OC(C)=O)C1NC(=O)N(CCCl)N=O (stereo not given) | > 100
COc1cc(OC)c2c(c1)C(=O)C(CC1(C)OCCCO1)=CC2=O | 10.6
Clc1cccc(Cl)c1C1SCc2nc3ccccc3n21 (stereo not given) | > 100
COc1cc2c(cc1OC)C1[C@@H](c3ccccc3)OCN1CC2 (stereo not given in full) | > 100

These molecules were tested on HCT-116 colon (assay: DTP human tumour cell line panel, 48 h).

Structure (SMILES) | TGI [µM]
COC1OC(COC(C)=O)C(OC(C)=O)C(OC(C)=O)C1NC(=O)N(CCCl)N=O (stereo not given) | > 100
CNc1ccccc1-c1nc2ccccc2c(=O)o1 | > 100
COc1cc(OC)c2c(c1)C(=O)C(CC1(C)OCCCO1)=CC2=O | 17.7
Clc1cccc(Cl)c1C1SCc2nc3ccccc3n21 (stereo not given) | > 100
COc1cc2c(cc1OC)C1[C@@H](c3ccccc3)OCN1CC2 (stereo not given in full) | > 100

These molecules were tested on SNB-19 CNS (assay: DTP human tumour cell line panel, 48 h).

Structure (SMILES) | TGI [µM]
COC1OC(COC(C)=O)C(OC(C)=O)C(OC(C)=O)C1NC(=O)N(CCCl)N=O (stereo not given) | > 100
CNc1ccccc1-c1nc2ccccc2c(=O)o1 | > 100
COc1cc(OC)c2c(c1)C(=O)C(CC1(C)OCCCO1)=CC2=O | 32.4
Clc1cccc(Cl)c1C1SCc2nc3ccccc3n21 (stereo not given) | > 100
COc1cc2c(cc1OC)C1[C@@H](c3ccccc3)OCN1CC2 (stereo not given in full) | > 100

These molecules were tested on DMS 114 small cell lung (assay: DTP human tumour cell line panel, 48 h).

Structure (SMILES) | TGI [µM]
COC1OC(COC(C)=O)C(OC(C)=O)C(OC(C)=O)C1NC(=O)N(CCCl)N=O (stereo not given) | > 100
CNc1ccccc1-c1nc2ccccc2c(=O)o1 | > 100
COc1cc(OC)c2c(c1)C(=O)C(CC1(C)OCCCO1)=CC2=O | 15.8
Clc1cccc(Cl)c1C1SCc2nc3ccccc3n21 (stereo not given) | > 100
COc1cc2c(cc1OC)C1[C@@H](c3ccccc3)OCN1CC2 (stereo not given in full) | > 100

Each molecule was assayed on CCRF-CEM leukemia (assay: DTP human tumour cell line panel, 48 h).

Structure (SMILES) | GI50 | TGI [µM]
COC1OC(COC(C)=O)C(OC(C)=O)C(OC(C)=O)C1NC(=O)N(CCCl)N=O (stereo not given) | 15.2 µM and 90.3 µM | > 100
CNc1ccccc1-c1nc2ccccc2c(=O)o1 | – | > 100
COc1cc(OC)c2c(c1)C(=O)C(CC1(C)OCCCO1)=CC2=O | – | 15.4
Clc1cccc(Cl)c1C1SCc2nc3ccccc3n21 (stereo not given) | – | > 100
COc1cc2c(cc1OC)C1[C@@H](c3ccccc3)OCN1CC2 (stereo not given in full) | – | > 100

The molecules below were run on UACC-257 melanoma (assay: DTP human tumour cell line panel, 48 h).

Structure (SMILES) | TGI [µM]
COC1OC(COC(C)=O)C(OC(C)=O)C(OC(C)=O)C1NC(=O)N(CCCl)N=O (stereo not given) | > 100
CNc1ccccc1-c1nc2ccccc2c(=O)o1 | > 100
COc1cc(OC)c2c(c1)C(=O)C(CC1(C)OCCCO1)=CC2=O | 25.9
Clc1cccc(Cl)c1C1SCc2nc3ccccc3n21 (stereo not given) | > 100
COc1cc2c(cc1OC)C1[C@@H](c3ccccc3)OCN1CC2 (stereo not given in full) | > 100

The molecules below were run on NCI-H460 lung (assay: DTP human tumour cell line panel, 48 h).

Structure (SMILES) | TGI [µM]
COC1OC(COC(C)=O)C(OC(C)=O)C(OC(C)=O)C1NC(=O)N(CCCl)N=O (stereo not given) | > 100
CNc1ccccc1-c1nc2ccccc2c(=O)o1 | > 100
COc1cc(OC)c2c(c1)C(=O)C(CC1(C)OCCCO1)=CC2=O | 34.7
Clc1cccc(Cl)c1C1SCc2nc3ccccc3n21 (stereo not given) | > 100
COc1cc2c(cc1OC)C1[C@@H](c3ccccc3)OCN1CC2 (stereo not given in full) | > 100

These molecules were tested on SR leukemia (assay: DTP human tumour cell line panel, 48 h).

Structure (SMILES) | TGI [µM]
CNc1ccccc1-c1nc2ccccc2c(=O)o1 | > 100
COc1cc(OC)c2c(c1)C(=O)C(CC1(C)OCCCO1)=CC2=O | 7.2
Clc1cccc(Cl)c1C1SCc2nc3ccccc3n21 (stereo not given) | > 100
COc1cc2c(cc1OC)C1[C@@H](c3ccccc3)OCN1CC2 (stereo not given in full) | > 100

Each molecule was assayed on HCT-15 colon (assay: DTP human tumour cell line panel, 48 h).

Structure (SMILES) | TGI [µM]
CNc1ccccc1-c1nc2ccccc2c(=O)o1 | > 100
COc1cc(OC)c2c(c1)C(=O)C(CC1(C)OCCCO1)=CC2=O | 16.3
Clc1cccc(Cl)c1C1SCc2nc3ccccc3n21 (stereo not given) | > 100
COc1cc2c(cc1OC)C1[C@@H](c3ccccc3)OCN1CC2 (stereo not given in full) | > 100

From PubChem BioAssay (NCI)
